Entries after “also recorded” stand apart in the source; their conditions may differ.
What was measured:
[1] = biological target: T1, FXR (Homo sapiens, UniProt Q96RI1); experiment: FXR transactivation luciferase reporter assay in transfected HepG2 cells; assay type: cell-based; details: for FXR transactivation activity (in words): HepG2 cells, compounds at 10 μM, CDCA 10 μM and 6-ECDCA 1 μM as positive controls; for EC50: HepG2 cells transfected with FXR, luciferase reporter, 100 nM to 10 μM
T1 construct: expressed in transfected cells; host or cells: HepG2
T1 sequence (Q96RI1 1-486): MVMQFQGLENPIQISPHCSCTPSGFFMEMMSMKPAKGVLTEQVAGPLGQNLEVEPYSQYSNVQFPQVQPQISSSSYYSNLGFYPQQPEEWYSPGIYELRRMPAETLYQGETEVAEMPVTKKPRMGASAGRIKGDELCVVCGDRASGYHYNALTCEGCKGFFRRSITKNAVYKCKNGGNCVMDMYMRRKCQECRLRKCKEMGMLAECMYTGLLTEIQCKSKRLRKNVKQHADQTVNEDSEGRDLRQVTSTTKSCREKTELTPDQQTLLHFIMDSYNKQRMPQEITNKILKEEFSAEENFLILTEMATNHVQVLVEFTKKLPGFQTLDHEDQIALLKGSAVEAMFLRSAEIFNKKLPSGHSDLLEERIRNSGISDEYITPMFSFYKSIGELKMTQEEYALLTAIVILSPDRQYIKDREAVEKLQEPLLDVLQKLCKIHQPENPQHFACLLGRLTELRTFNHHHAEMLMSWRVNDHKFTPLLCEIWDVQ
T1 sequence (P19793 1-462 partner): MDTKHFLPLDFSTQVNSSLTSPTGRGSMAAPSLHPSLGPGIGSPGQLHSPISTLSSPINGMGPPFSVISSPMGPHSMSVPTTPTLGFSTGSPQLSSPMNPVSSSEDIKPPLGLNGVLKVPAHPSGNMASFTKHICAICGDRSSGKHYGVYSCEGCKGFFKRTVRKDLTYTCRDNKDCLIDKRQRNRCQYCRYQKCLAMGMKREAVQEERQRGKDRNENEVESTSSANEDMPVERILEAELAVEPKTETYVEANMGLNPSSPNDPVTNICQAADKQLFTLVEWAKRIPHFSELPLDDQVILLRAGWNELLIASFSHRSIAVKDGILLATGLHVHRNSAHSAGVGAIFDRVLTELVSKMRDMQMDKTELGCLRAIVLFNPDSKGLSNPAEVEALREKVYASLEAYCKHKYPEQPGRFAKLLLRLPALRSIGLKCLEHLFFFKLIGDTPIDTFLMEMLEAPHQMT
Protocol: Figure 6 Transactivation assays on FXR. (A) HepG2 cells were transfected with pSG5-FXR, pSG5-RXR, pCMV-βgal, and p(hsp27)TKLUC vectors. […] Twenty-four hour post transfection cells were stimulated with increasing concentrations of each agent: range from 100 nM to 10 μM.
To evaluate the transcriptional activity of FXR, HepG2 cells were transiently transfected with Fugene HD reagent (Promega) using the followings plasmids: pCMVSPORT-humanFXR, pSG5RXR, p(hsp27)TKLUC and pGL4.70, a plasmid containing the Renilla gene used for luciferase normalization.

[2] = system: FXR; set-up: method as in PMID 10360171; details: cited from earlier work
[3] = system: GPBAR1; set-up: method as in PMID 25247751; details: cited from earlier work
[4] = system: NASH patients; set-up: method as in PMID 25468160; details: cited from earlier work
[5] = system: PBC patients; details: cited from earlier work
[6] = biological target: T2, GPBAR1 (Homo sapiens, UniProt Q8TDU6); experiment: GPBAR1 agonism, CRE-luciferase transactivation assay in transfected HEK-293T cells; assay type: cell-based; details: from FXR and GPBAR1 transactivation results
T2 construct: expressed in transfected cells; host or cells: HEK-293T
T2 sequence (Q8TDU6 1-330): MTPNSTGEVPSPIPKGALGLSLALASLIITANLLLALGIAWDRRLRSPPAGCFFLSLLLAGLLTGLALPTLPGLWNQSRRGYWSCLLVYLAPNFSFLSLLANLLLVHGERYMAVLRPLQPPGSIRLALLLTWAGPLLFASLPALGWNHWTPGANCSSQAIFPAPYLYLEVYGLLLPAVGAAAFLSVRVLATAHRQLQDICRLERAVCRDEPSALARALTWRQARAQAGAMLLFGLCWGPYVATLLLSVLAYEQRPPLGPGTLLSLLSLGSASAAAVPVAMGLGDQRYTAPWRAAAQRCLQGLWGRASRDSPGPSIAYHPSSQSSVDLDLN
Protocol: (A) HEK-293T cells were co-transfected with GPBAR1 and a reporter gene containing a cAMP responsive element in front of the luciferase gene. Twenty-four hour post transfection cells were stimulated with 7–21 (10 μM). Luciferase activity served as a measure of the rise in intracellular cAMP following activation of GPBAR1. […] Twenty-four hour post transfection cells were stimulated with increasing concentrations of each agent: range from 100 nM to 50 μM. Results are expressed as mean ± standard error.
To investigate GPBAR1 activation, HEK-293T cells were transiently transfected with Fugene HD reagent (Promega) using the following vectors: pCMVSPORT6-human GPBAR1, pGL4.29 (Promega), a reporter vector containing a cAMP response element (CRE) cloned upstream to the luciferase reporter gene luc2P and pGL4.70. […] Dose-response curves were performed in HEK-293T cells transfected as described above and treated with increasing concentrations of 9 and 21 (from 100 nM to 50 μM). […] At 18 h post stimulations, cellular lysate was assayed for luciferase and renilla activities using the Dual-Luciferase Reporter assay system (E1980, Promega). Luminescence was measured using Glomax 20/20 luminometer (Promega). Luciferase activities were normalized with Renilla activities.

[7] = biological target: T3, FXR-LBD (Homo sapiens, UniProt Q96RI1); experiment: Alphascreen coactivator recruitment assay, FXR-LBD with SRC-1 peptide; assay type: biochemical; details: ligand at 2 μM, effect of 6 set as 100%
T3 construct: 10 nM of purified GST-tagged FXR-LBD protein
T3 sequence (Q96RI1 262-486 limits assumed): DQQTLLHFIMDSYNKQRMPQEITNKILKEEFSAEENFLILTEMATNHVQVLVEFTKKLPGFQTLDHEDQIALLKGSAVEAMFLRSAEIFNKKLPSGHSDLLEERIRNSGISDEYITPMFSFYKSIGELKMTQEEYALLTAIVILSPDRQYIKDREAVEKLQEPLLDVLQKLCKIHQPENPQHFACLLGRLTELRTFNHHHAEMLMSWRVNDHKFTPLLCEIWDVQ
Protocol: Figure 7 Coactivator recruitment assay measuring a direct interaction of FXR with SRC-1. Anti-GST-coated acceptor beads captured GST-fusion FXR-LBD and the biotinylated-SRC-1 peptide was captured by the streptavidin donor beads. FXR-LBD recruited SRC-1 in the presence of ligand at 2 μM and, upon illumination at 680 nm, chemical energy is transferred from donor to acceptor beads across the complex streptavidin-donor/Src-1-biotin/ligand/GSTFXR-LBD/anti-GST-acceptor and a signal is produced. Results are expressed as percentage of the effect of 6 arbitrarily settled as 100%. NT is referred to the experiment carried out in absence of ligand. Results are expressed as mean ± standard error.
The relative potency of selected members of this novel family was then investigated by a detailed measurement of concentration-response curve of the 3-deoxy sulfate derivative 9, the corresponding carboxylic acid 10, and the 3β-hydroxyl alcohol 15 and carboxylic acid derivative 17, all sharing the 6α/7α configuration, on FXR transactivation. […] In this assay, the ligand induces the recruitment of the coactivator to the LBD of hFXR.
Anti-GST-coated acceptor beads were used to capture the GST-fusion FXR-LBD, whereas the biotinylated-SRC-1 peptide was captured by the streptavidin donor beads. Upon illumination at 680 nm, chemical energy is transferred from donor to acceptor beads across the complex streptavidin-donor/Src-1-biotin/GSTFXR-LBD/anti-GST-acceptor and a signal is produced. The assay was performed in white, low-volume, 384-well Optiplates (PerkinElmer) using a final volume of 25 μL containing final concentrations of 10 nM of purified GST-tagged FXR-LBD protein, 30 nM biotinylated Src-1 peptide, 20 μg/mL anti-GST acceptor beads acceptor beads, and 10 μg/mL of streptavidin donor bead (PerkinElmer). The assay buffer contained 50 mM Tris (pH 7.4), 50 mM KCl, 0.1% BSA, and 1 mM DTT. […] After the addition of the detection mix (acceptor and donor beads), the plates were incubated in the dark for 4 h at room temperature and then were read in an Envision microplate analyzer (PerkinElmer).

Question: For `CC[C@@H]1[C@H](O)C2C3CC[C@H]([C@H](C)CCCO)[C@@]3(C)CCC2[C@@]2(C)CCCC[C@@H]12` (stereo partly drawn) [compound 13], which “FXR transactivation activity (in words)” value [1] is on record?
Answer: complete loss of activity

Question: With `C[C@H](CCC(=O)O)[C@H]1CC[C@H]2[C@@H]3CC[C@@H]4C[C@H](O)CC[C@]4(C)[C@H]3CC[C@]12C` [lithocholic acid] as the molecule, how does the “FXR ligand strength relative to CDCA (in words)” value [2] read?
Answer: weaker natural ligands

Question: Which “FXR transactivation activity (in words)” value [1] does the source give for `CC[C@H]1[C@@H](O)C2C3CC[C@H]([C@H](C)CCCO)[C@@]3(C)CCC2[C@@]2(C)CCCC[C@@H]12` (stereo partly drawn) [compound 7] here?
Answer: potent agonists of FXR

Question: For `CC[C@H]1[C@@H](O)C2C3CC[C@H]([C@H](C)CCC(=O)NCCS(=O)(=O)O)[C@@]3(C)CCC2[C@@]2(C)CCCC[C@@H]12` (stereo partly drawn) [compound 12], which “FXR transactivation activity (in words)” value [1] is on record?
Answer: ability in transactivating FXR is also maintained; also recorded: still a potent FXR agonist

Question: With `CC[C@H]1[C@H](O)C2C3CC[C@H]([C@H](C)CCCO)[C@@]3(C)CCC2[C@@]2(C)CCCC[C@@H]12` (stereo partly drawn) [compound 8] as the molecule, how does the “FXR transactivation activity (in words)” value [1] read?
Answer: completely inactive towards FXR

Question: For `C[C@H](CCC(=O)O)[C@H]1CC[C@H]2[C@@H]3CC[C@@H]4C[C@@H](O)CC[C@]4(C)[C@H]3CC[C@]12C` [iso-LCA], which “GPBAR1 activity (in words)” value [3] is on record?
Answer: less potent respect to the cognate LCA

Question: For `CC[C@H]1[C@H](O)[C@@H]2[C@H](CC[C@]3(C)[C@@H]([C@H](C)CCC(=O)O)CC[C@@H]23)[C@@]2(C)CCCC[C@@H]12` [compound 11, 6α-ethyl-7β-hydroxy-5β-cholan-24-oic acid], which “FXR transactivation activity (in words)” value [1] is on record?
Answer: retains a certain activity

Question: Which “NASH resolution, patients” value ([4]; after 72 weeks, p = 0.08 vs. placebo) does the source give for `CC[C@H]1[C@@H](O)[C@@H]2[C@H](CC[C@]3(C)[C@@H]([C@H](C)CCC(=O)O)CC[C@@H]23)[C@@]2(C)CC[C@@H](O)C[C@@H]12` [6-ECDCA, 6-ethylchenodeoxycholic acid] here?
Answer: 22%

Question: And the “Decrease in HDL-C levels” value ([4]; as compared to placebo)?
Answer: 5%

Question: And the “Increase in LDL-C” value ([4]; as compared to placebo)?
Answer: 16%

Question: What about the “Primary histological outcome (NAFLD activity score) and fibrosis score” value ([4]; compared with placebo) of the same molecule?
Answer: significantly improved

Question: And the “Drug discontinuation due to exacerbation of itching, patients” value ([5]; PBC patients)?
Answer: 40%

Question: And the “Drug discontinuation, patients” value ([5]; due to pruritus)?
Answer: 40%

Question: And the “Incidence of pruritus, patients” value ([5]; patients with primary biliary cirrhosis)?
Answer: up to 80%

Question: For `CC[C@@H]1[C@@H](O)C2C3CC[C@H]([C@H](C)CCCO)[C@@]3(C)CCC2[C@@]2(C)CC[C@H](O)C[C@@H]12` (stereo partly drawn) [compound 21], which “FXR transactivation activity (in words)” value [1] is on record?
Answer: less potent then CDCA in transactivating FXR

Question: And the “Receptor preference FXR versus GPBAR1 (in words)” value [6]?
Answer: weak but preferential GPBAR1 activator

Question: With `CC[C@H]1[C@@H](O)[C@@H]2[C@H](CC[C@]3(C)[C@@H]([C@H](C)CCCO)CC[C@@H]23)[C@@]2(C)CC[C@H](O)C[C@@H]12` [compound 15, 6α-ethyl-3β,7α-dihydroxy-5β-cholan-24-ol] as the molecule, how does the EC50 [1] read?
Answer: 2.2 µM

Question: And the “FXR transactivation activity (in words)” value [1]?
Answer: potent agonists of FXR

Question: And the “Recruitment of SRC-1 coactivator to FXR-LBD (in words)” value [7]?
Answer: very potent activity in the recruitment of SRC-1 co-activator

Question: With `C[C@H](CCC(=O)O)[C@H]1CC[C@H]2[C@@H]3[C@H](O)C[C@@H]4C[C@@H](O)CC[C@]4(C)[C@H]3CC[C@]12C` [iso-CDCA, isochenodeoxycholic acid] as the molecule, how does the “GPBAR1 activity (in words)” value [3] read?
Answer: very weak activity towards GPBAR1

Question: Which “FXR transactivation activity (in words)” value [1] does the source give for `CC[C@@H]1[C@H](O)C2C3CC[C@H]([C@H](C)CCCO)[C@@]3(C)CCC2[C@@]2(C)CC[C@H](O)C[C@@H]12` (stereo partly drawn) [compound 20] here?
Answer: complete loss of activity

Question: For `CC[C@H]1[C@@H](O)[C@@H]2[C@H](CC[C@]3(C)[C@@H]([C@H](C)CCC(=O)O)CC[C@@H]23)[C@@]2(C)CC[C@H](O)C[C@@H]12` [compound 17, 6α-ethyl-3β,7α-dihydroxy-5β-cholan-24-oic acid], which “FXR transactivation activity (in words)” value [1] is on record?
Answer: potent agonists of FXR

Question: What about the “Recruitment of SRC-1 coactivator to FXR-LBD (in words)” value [7] of the same molecule?
Answer: very potent activity in the recruitment of SRC-1 co-activator

Question: With `CC[C@H]1[C@@H](O)C2C3CC[C@H]([C@H](C)CCC(=O)NCCS(=O)(=O)O)[C@@]3(C)CCC2[C@@]2(C)CC[C@H](O)C[C@@H]12` (stereo partly drawn) [compound 19] as the molecule, how does the “FXR transactivation activity (in words)” value [1] read?
Answer: considerable decrease in FXR transactivation activity; also recorded: detrimental in term of FXR activation

Question: Which EC50 [1] does the source give for `CC[C@H]1[C@@H](O)C2C3CC[C@H]([C@H](C)CCCOS(=O)(=O)O)[C@@]3(C)CCC2[C@@]2(C)CCCC[C@@H]12` (stereo partly drawn) [compound 9] here?
Answer: 1.1 µM

Question: What about the “FXR transactivation activity (in words)” value [1] of the same molecule?
Answer: potent agonists of FXR

Question: What about the “Receptor preference FXR versus GPBAR1 (in words)” value [6] of the same molecule?
Answer: preferential FXR modulator with a residual activity on GPBAR1
